From PubChem BioAssay AID1919010 (Molecular Pharmacology Branch, DTP, NCI, 2023)

System: Hs578T complex spheroid growth, percent test/control
Test: Anticancer human tumor Hs578T cell line growth inhibition [AhR];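 also: luminescent viability signal as a proxy for spheroid growth; spheroids exposed to agents for one week after three days of growth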
Settings: for IC50: curve of first compound; for viability, T/C: stronger effect = lower value
How it was run: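 Agents were dosed in half-log steps down from roughly clinical Cmax, or from 10 microM where Cmax was unknown, alone and with AhR antagonists. Read-out: percent test/control growth of tumor spheroids containing HUVEC and MSC stromal cells.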

[1] = second compound 0.1 µM, first compound 0.0316 µM
[2] = second compound 0.1 µM, first compound 0.1 µM
[3] = second compound 0.1 µM, first compound 0.316 µM
[4] = second compound 0.1 µM, first compound 1 µM
[5] = second compound 0.316 µM, first compound 0.0316 µM
[6] = second compound 0.316 µM, first compound 0.1 µM
[7] = second compound 0.316 µM, first compound 0.316 µM
[8] = second compound 0.316 µM, first compound 1 µM
[9] = second compound 1 µM, first compound 0.0316 µM
[10] = second compound 1 µM, first compound 0.1 µM
[11] = second compound 1 µM, first compound 0.316 µM
[12] = second compound 1 µM, first compound 1 µM
[13] = second compound 3.16 µM, first compound 0.0316 µM
[14] = second compound 3.16 µM, first compound 0.1 µM
[15] = second compound 3.16 µM, first compound 0.316 µM
[16] = second compound 3.16 µM, first compound 1 µM
[17] = second compound 10 µM, first compound 0.0316 µM
[18] = second compound 10 µM, first compound 0.1 µM
[19] = second compound 10 µM, first compound 0.316 µM
[20] = second compound 10 µM, first compound 1 µM
[21] = second compound 0.1 µM, first compound 3.16 µM
[22] = second compound 0.1 µM, first compound 10 µM
[23] = second compound 0.316 µM, first compound 3.16 µM
[24] = second compound 0.316 µM, first compound 10 µM
[25] = second compound 1 µM, first compound 3.16 µM
[26] = second compound 1 µM, first compound 10 µM
[27] = second compound 3.16 µM, first compound 3.16 µM
[28] = second compound 3.16 µM, first compound 10 µM
[29] = second compound 10 µM, first compound 3.16 µM
[30] = second compound 10 µM, first compound 10 µM
[31] = second compound 0.1 µM, first compound 0.00949 µM
[32] = second compound 0.1 µM, first compound 0.03 µM
[33] = second compound 0.1 µM, first compound 0.0949 µM
[34] = second compound 0.1 µM, first compound 0.3 µM
[35] = second compound 0.316 µM, first compound 0.00949 µM
[36] = second compound 0.316 µM, first compound 0.03 µM
[37] = second compound 0.316 µM, first compound 0.0949 µM
[38] = second compound 0.316 µM, first compound 0.3 µM
[39] = second compound 1 µM, first compound 0.00949 µM
[40] = second compound 1 µM, first compound 0.03 µM
[41] = second compound 1 µM, first compound 0.0949 µM
[42] = second compound 1 µM, first compound 0.3 µM
[43] = second compound 3.16 µM, first compound 0.00949 µM
[44] = second compound 3.16 µM, first compound 0.03 µM
[45] = second compound 3.16 µM, first compound 0.0949 µM
[46] = second compound 3.16 µM, first compound 0.3 µM
[47] = second compound 10 µM, first compound 0.00949 µM
[48] = second compound 10 µM, first compound 0.03 µM
[49] = second compound 10 µM, first compound 0.0949 µM
[50] = second compound 10 µM, first compound 0.3 µM

SMILES: CC1COCCN1c1cc(-c2ccnn2C)c2ccnc(-c3ccn[nH]3)c2n1 (stereo not given) + Cc1cncc(-c2nc(NCCc3c[nH]c4ccccc34)c3ncn(C(C)C)c3n2)c1
- IC50 (second compound 0.1 µM): 589 nM
- IC50 (second compound 0.316 µM): 662 nM
- IC50 (second compound 1 µM): 342 nM
- IC50 (second compound 3.16 µM): 104 nM
- IC50 (second compound 10 µM): < 3.16 nM
- viability, T/C (second compound 0.1 µM, first compound 0.00316 µM): 109%
- viability, T/C (second compound 0.1 µM, first compound 0.01 µM): 117%
- viability, T/C [1]: 109%
- viability, T/C [2]: 96.8%
- viability, T/C [3]: 55.8%
- viability, T/C [4]: 45.1%
- viability, T/C (second compound 0.316 µM, first compound 0.00316 µM): 108%
- viability, T/C (second compound 0.316 µM, first compound 0.01 µM): 116%
- viability, T/C [5]: 109%
- viability, T/C [6]: 91.8%
- viability, T/C [7]: 57.2%
- viability, T/C [8]: 46%
- viability, T/C (second compound 1 µM, first compound 0.00316 µM): 109%
- viability, T/C (second compound 1 µM, first compound 0.01 µM): 116%
- viability, T/C [9]: 103%
- viability, T/C [10]: 81.7%
- viability, T/C [11]: 50.6%
- viability, T/C [12]: 38.5%
- viability, T/C (second compound 3.16 µM, first compound 0.00316 µM): 62.9%
- viability, T/C (second compound 3.16 µM, first compound 0.01 µM): 65%
- viability, T/C [13]: 58.8%
- viability, T/C [14]: 51.3%
- viability, T/C [15]: 35.1%
- viability, T/C [16]: 37.7%
- viability, T/C (second compound 10 µM, first compound 0.00316 µM): 4.51%
- viability, T/C (second compound 10 µM, first compound 0.01 µM): 3.84%
- viability, T/C [17]: 4.82%
- viability, T/C [18]: 4.52%
- viability, T/C [19]: 4.47%
- viability, T/C [20]: 7.62%

SMILES: CC1COCCN1c1cc(C2(S(C)(=N)=O)CC2)nc(-c2ccnc3[nH]ccc23)n1 (stereo not given) + Cc1cncc(-c2nc(NCCc3c[nH]c4ccccc34)c3ncn(C(C)C)c3n2)c1
- IC50 (second compound 0.1 µM): > 10000 nM
- IC50 (second compound 0.316 µM): > 10000 nM
- IC50 (second compound 1 µM): > 10000 nM
- IC50 (second compound 3.16 µM): > 10000 nM
- IC50 (second compound 10 µM): < 31.6 nM
- viability, T/C [1]: 120%
- viability, T/C [2]: 115%
- viability, T/C [3]: 111%
- viability, T/C [4]: 102%
- viability, T/C [21]: 92.1%
- viability, T/C [22]: 66.2%
- viability, T/C [5]: 119%
- viability, T/C [6]: 119%
- viability, T/C [7]: 116%
- viability, T/C [8]: 113%
- viability, T/C [23]: 105%
- viability, T/C [24]: 60.4%
- viability, T/C [9]: 106%
- viability, T/C [10]: 107%
- viability, T/C [11]: 118%
- viability, T/C [12]: 111%
- viability, T/C [25]: 98.2%
- viability, T/C [26]: 62.5%
- viability, T/C [13]: 62.5%
- viability, T/C [14]: 57.2%
- viability, T/C [15]: 59.1%
- viability, T/C [16]: 64.5%
- viability, T/C [27]: 55.3%
- viability, T/C [28]: 43.3%
- viability, T/C [17]: 8.31%
- viability, T/C [18]: 8.78%
- viability, T/C [19]: 9.14%
- viability, T/C [20]: 8%
- viability, T/C [29]: 9.08%
- viability, T/C [30]: 11.8%

SMILES: COc1ccc([C@@H](O)c2cc(-c3ncnc4cc(N5CCOCC5)ccc34)c(F)cc2Cl)nn1 + Cc1cncc(-c2nc(NCCc3c[nH]c4ccccc34)c3ncn(C(C)C)c3n2)c1
- IC50 (second compound 0.1 µM): 5740 nM
- IC50 (second compound 0.316 µM): 5830 nM
- IC50 (second compound 1 µM): 5990 nM
- IC50 (second compound 3.16 µM): 2560 nM
- IC50 (second compound 10 µM): < 31.6 nM
- viability, T/C [1]: 108%
- viability, T/C [2]: 115%
- viability, T/C [3]: 104%
- viability, T/C [4]: 86%
- viability, T/C [21]: 61%
- viability, T/C [22]: 40.3%
- viability, T/C [5]: 112%
- viability, T/C [6]: 114%
- viability, T/C [7]: 109%
- viability, T/C [8]: 92.5%
- viability, T/C [23]: 59%
- viability, T/C [24]: 42.1%
- viability, T/C [9]: 103%
- viability, T/C [10]: 118%
- viability, T/C [11]: 102%
- viability, T/C [12]: 84.8%
- viability, T/C [25]: 58.6%
- viability, T/C [26]: 43.4%
- viability, T/C [13]: 68.6%
- viability, T/C [14]: 61%
- viability, T/C [15]: 64.8%
- viability, T/C [16]: 56.2%
- viability, T/C [27]: 48.4%
- viability, T/C [28]: 36.1%
- viability, T/C [17]: 5%
- viability, T/C [18]: 4.23%
- viability, T/C [19]: 5.09%
- viability, T/C [20]: 5.36%
- viability, T/C [29]: 7.09%
- viability, T/C [30]: 9.8%

SMILES: Nc1ncn(C2CC(O)C(CO)S2)c(=O)n1 (stereo not given) + Cc1cncc(-c2nc(NCCc3c[nH]c4ccccc34)c3ncn(C(C)C)c3n2)c1
- IC50 (second compound 0.1 µM): > 300 nM
- IC50 (second compound 0.316 µM): > 300 nM
- IC50 (second compound 1 µM): > 300 nM
- IC50 (second compound 3.16 µM): > 300 nM
- IC50 (second compound 10 µM): < 0.949 nM
- viability, T/C (second compound 0.1 µM, first compound 0.000949 µM): 110%
- viability, T/C (second compound 0.1 µM, first compound 0.003 µM): 119%
- viability, T/C [31]: 117%
- viability, T/C [32]: 108%
- viability, T/C [33]: 104%
- viability, T/C [34]: 92.9%
- viability, T/C (second compound 0.316 µM, first compound 0.000949 µM): 116%
- viability, T/C (second compound 0.316 µM, first compound 0.003 µM): 114%
- viability, T/C [35]: 115%
- viability, T/C [36]: 107%
- viability, T/C [37]: 108%
- viability, T/C [38]: 93.9%
- viability, T/C (second compound 1 µM, first compound 0.000949 µM): 92.2%
- viability, T/C (second compound 1 µM, first compound 0.003 µM): 95.3%
- viability, T/C [39]: 91%
- viability, T/C [40]: 82.4%
- viability, T/C [41]: 88.8%
- viability, T/C [42]: 86.4%
- viability, T/C (second compound 3.16 µM, first compound 0.000949 µM): 46.2%
- viability, T/C (second compound 3.16 µM, first compound 0.003 µM): 54.2%
- viability, T/C [43]: 55.5%
- viability, T/C [44]: 49.4%
- viability, T/C [45]: 47%
- viability, T/C [46]: 55%
- viability, T/C (second compound 10 µM, first compound 0.000949 µM): 14.1%
- viability, T/C (second compound 10 µM, first compound 0.003 µM): 7.61%
- viability, T/C [47]: 7.86%
- viability, T/C [48]: 8.27%
- viability, T/C [49]: 7.59%
- viability, T/C [50]: 7.47%

SMILES: O=C(C=Cn1cnc(-c2cc(C(F)(F)F)cc(C(F)(F)F)c2)n1)NNc1cnccn1 + Cc1cncc(-c2nc(NCCc3c[nH]c4ccccc34)c3ncn(C(C)C)c3n2)c1
- IC50 (second compound 0.1 µM): 402 nM
- IC50 (second compound 0.316 µM): 352 nM
- IC50 (second compound 1 µM): 346 nM
- IC50 (second compound 3.16 µM): 148 nM
- IC50 (second compound 10 µM): < 9.49 nM
- viability, T/C [31]: 113%
- viability, T/C [32]: 100%
- viability, T/C [33]: 93.7%
- viability, T/C [34]: 61.6%
- viability, T/C (second compound 0.1 µM, first compound 0.949 µM): 19.2%
- viability, T/C (second compound 0.1 µM, first compound 3 µM): 19.4%
- viability, T/C [35]: 110%
- viability, T/C [36]: 110%
- viability, T/C [37]: 96.4%
- viability, T/C [38]: 55%
- viability, T/C (second compound 0.316 µM, first compound 0.949 µM): 21.9%
- viability, T/C (second compound 0.316 µM, first compound 3 µM): 19.1%
- viability, T/C [39]: 101%
- viability, T/C [40]: 103%
- viability, T/C [41]: 93.2%
- viability, T/C [42]: 55.3%
- viability, T/C (second compound 1 µM, first compound 0.949 µM): 17.2%
- viability, T/C (second compound 1 µM, first compound 3 µM): 19.2%
- viability, T/C [43]: 84.6%
- viability, T/C [44]: 71.6%
- viability, T/C [45]: 59.4%
- viability, T/C [46]: 39%
- viability, T/C (second compound 3.16 µM, first compound 0.949 µM): 16%
- viability, T/C (second compound 3.16 µM, first compound 3 µM): 14.6%
- viability, T/C [47]: 6.63%
- viability, T/C [48]: 4.78%
- viability, T/C [49]: 2.83%
- viability, T/C [50]: 1.17%
- viability, T/C (second compound 10 µM, first compound 0.949 µM): 1.46%
- viability, T/C (second compound 10 µM, first compound 3 µM): 1.56%
